Measured values published in PubChem BioAssay (NCI).
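Five concentrations, 48 hours, 96-well plates. The concentration for full growth arrest is given as TGI.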

Key:
Assay in all cases: growth of human tumour cells (NCI), 48 h
MDA-MB-435 = tested on: MDA-MB-435
HT29 colon = tested on: HT29 colon
OVCAR-4 ovarian = tested on: OVCAR-4 ovarian
NCI/ADR-RES ovarian = tested on: NCI/ADR-RES ovarian
NCI-H460 lung = tested on: NCI-H460 lung
COLO 205 colon = tested on: COLO 205 colon
SK-MEL-2 melanoma = tested on: SK-MEL-2 melanoma
DU-145 prostate = tested on: DU-145 prostate
KM12 colon = tested on: KM12 colon
M14 melanoma = tested on: M14 melanoma

CC(C)(C)c1ccc2c(c1)CNCCNCc1cc(C(C)(C)C)ccc1OCC1(CO2)COc2ccc(C(C)(C)C)cc2CNCCNCc2cc(C(C)(C)C)ccc2OC1
TGI (MDA-MB-435): 1 µM
TGI (HT29 colon): 0.472 µM
TGI (OVCAR-4 ovarian): 2.93 µM
TGI (NCI/ADR-RES ovarian): 3.07 µM
TGI (NCI-H460 lung): 0.609 µM
TGI (COLO 205 colon): 2.29 µM
TGI (SK-MEL-2 melanoma): 2.89 µM
TGI (DU-145 prostate): 3.15 µM
TGI (KM12 colon): 0.933 µM
TGI (M14 melanoma): 1.45 µM

CC1(C)CC(/C=C2/OC(=O)c3ccccc32)=C(C#N)C(=O)O1
TGI (HT29 colon): > 100 µM
TGI (OVCAR-4 ovarian): > 100 µM
TGI (NCI-H460 lung): > 100 µM
TGI (COLO 205 colon): > 100 µM
TGI (SK-MEL-2 melanoma): > 100 µM
TGI (KM12 colon): > 100 µM
TGI (M14 melanoma): > 100 µM

N.N.N.O=[N+]([O-])[O-].O=[N+]([O-])[O-].O=[N+]([O-])[O-].O=[N+]([O-])[O-].[Co+3]
TGI (HT29 colon): > 100 µM
TGI (OVCAR-4 ovarian): > 100 µM
TGI (NCI-H460 lung): > 100 µM
TGI (COLO 205 colon): > 100 µM
TGI (SK-MEL-2 melanoma): > 100 µM
TGI (KM12 colon): > 100 µM
TGI (M14 melanoma): > 100 µM

COC(=O)CC(=O)C[P+](c1ccccc1)(c1ccccc1)c1ccccc1
TGI (HT29 colon): > 218 µM
TGI (NCI-H460 lung): > 218 µM
TGI (COLO 205 colon): > 218 µM
TGI (SK-MEL-2 melanoma): > 218 µM
TGI (KM12 colon): > 218 µM

COC(=O)C(/C(=N/NC(N)=O)C(=O)Nc1ccc(C)cc1)c1nc2ccc([N+](=O)[O-])cc2[nH]c1=O (stereo unspecified)
TGI (MDA-MB-435): > 100 µM
TGI (HT29 colon): > 100 µM
TGI (OVCAR-4 ovarian): > 100 µM
TGI (NCI/ADR-RES ovarian): > 100 µM
TGI (NCI-H460 lung): > 100 µM
TGI (SK-MEL-2 melanoma): > 100 µM
TGI (KM12 colon): > 100 µM
TGI (M14 melanoma): > 100 µM

CCOC(=O)C1Cc2[nH]c3ccccc3c2C(C)C1C (stereo unspecified)
TGI (OVCAR-4 ovarian): 30.9 µM
TGI (NCI-H460 lung): 33.2 µM
TGI (COLO 205 colon): 32.6 µM
TGI (SK-MEL-2 melanoma): 36 µM
TGI (KM12 colon): 34.6 µM
TGI (M14 melanoma): 30.7 µM

COc1ccc(C2Oc3c(cc(O)c(OC)c3C)[C@@H]2C)cc1OC (stereo partly specified)
TGI (HT29 colon): > 100 µM
TGI (OVCAR-4 ovarian): > 100 µM
TGI (NCI-H460 lung): > 100 µM
TGI (COLO 205 colon): > 100 µM
TGI (SK-MEL-2 melanoma): > 100 µM
TGI (KM12 colon): > 100 µM
TGI (M14 melanoma): > 100 µM

Nc1cc(CO)cc(Nc2nc3ccc(Cl)cc3c3[nH]c4ccccc4c23)c1
TGI (MDA-MB-435): 15.3 µM
TGI (HT29 colon): 11.7 µM
TGI (NCI/ADR-RES ovarian): 42.5 µM
TGI (NCI-H460 lung): 6.56 µM
TGI (COLO 205 colon): 11.6 µM
TGI (SK-MEL-2 melanoma): 15 µM
TGI (DU-145 prostate): 15.2 µM
TGI (KM12 colon): 18.6 µM
TGI (M14 melanoma): 16.7 µM

Cn1cc2ccccc2c1-c1nc(N)nc(F)n1
TGI (HT29 colon): > 100 µM
TGI (OVCAR-4 ovarian): > 100 µM
TGI (NCI-H460 lung): > 100 µM
TGI (COLO 205 colon): > 100 µM
TGI (SK-MEL-2 melanoma): > 100 µM
TGI (KM12 colon): > 100 µM
TGI (M14 melanoma): > 100 µM

Oc1ccc(/C=C/c2cc(O)cc(O)c2)cc1
TGI (MDA-MB-435): > 100 µM
TGI (HT29 colon): > 100 µM
TGI (OVCAR-4 ovarian): > 100 µM
TGI (NCI/ADR-RES ovarian): > 100 µM
TGI (NCI-H460 lung): > 100 µM
TGI (SK-MEL-2 melanoma): > 100 µM
TGI (DU-145 prostate): 85.3 µM
TGI (KM12 colon): > 100 µM
TGI (M14 melanoma): > 100 µM

S=C(N/N=C\C=N/NC(=S)N1CCCCC1)N1CCCCC1
TGI (MDA-MB-435): > 100 µM
TGI (HT29 colon): > 100 µM
TGI (NCI/ADR-RES ovarian): > 22.3 µM
TGI (NCI-H460 lung): > 41.5 µM
TGI (COLO 205 colon): > 100 µM
TGI (DU-145 prostate): > 100 µM
TGI (KM12 colon): > 100 µM
TGI (M14 melanoma): > 100 µM

COc1cc2c(cc1OC)C1=Cc3cc(OC)c(OC)cc3C(C)N1C=C2 (stereo unspecified)
TGI (MDA-MB-435): > 100 µM
TGI (HT29 colon): > 100 µM
TGI (NCI/ADR-RES ovarian): > 100 µM
TGI (NCI-H460 lung): > 100 µM
TGI (COLO 205 colon): > 100 µM
TGI (DU-145 prostate): > 100 µM
TGI (KM12 colon): > 100 µM
TGI (M14 melanoma): > 100 µM

CC(O[Si](c1ccccc1)(c1ccccc1)C(C)(C)C)[C@H](NC(=O)OC(C)(C)C)C(=O)O[Si](c1ccccc1)(c1ccccc1)C(C)(C)C (stereo partly specified)
TGI (HT29 colon): 23.9 µM
TGI (OVCAR-4 ovarian): 16.5 µM
TGI (NCI/ADR-RES ovarian): 29 µM
TGI (NCI-H460 lung): 25.5 µM
TGI (COLO 205 colon): 31.3 µM
TGI (DU-145 prostate): 25.6 µM
TGI (KM12 colon): 24.3 µM
TGI (M14 melanoma): 29.4 µM

C/C(CCOC1CCCCO1)=C(\C)[Si](C)(C)C (stereo unspecified)
TGI (HT29 colon): > 100 µM
TGI (NCI-H460 lung): > 100 µM
TGI (COLO 205 colon): > 100 µM
TGI (SK-MEL-2 melanoma): > 100 µM
TGI (KM12 colon): > 100 µM
TGI (M14 melanoma): > 100 µM

Cc1nc2c(sc(=S)n2-c2ccccc2)c2nc3ncccc3n12
TGI (MDA-MB-435): > 100 µM
TGI (HT29 colon): > 100 µM
TGI (NCI/ADR-RES ovarian): > 100 µM
TGI (NCI-H460 lung): > 100 µM
TGI (COLO 205 colon): > 100 µM
TGI (SK-MEL-2 melanoma): > 100 µM
TGI (DU-145 prostate): > 100 µM
TGI (KM12 colon): > 100 µM
TGI (M14 melanoma): > 100 µM

COc1ccc(-c2cc(-c3ccco3)c(C#N)c(=S)n2C2OC(COC(C)=O)C(OC(C)=O)C(OC(C)=O)C2OC(C)=O)cc1 (stereo unspecified)
TGI (MDA-MB-435): 28.2 µM
TGI (HT29 colon): 14.8 µM
TGI (OVCAR-4 ovarian): 10 µM
TGI (NCI/ADR-RES ovarian): 37.7 µM
TGI (NCI-H460 lung): 52 µM
TGI (COLO 205 colon): 16.2 µM
TGI (DU-145 prostate): 20.3 µM
TGI (KM12 colon): 33.4 µM
TGI (M14 melanoma): 17.7 µM

C=C(C(=O)C(=O)Oc1ccc(Cl)cc1)C(=O)c1ccc(C)cc1
TGI (HT29 colon): > 100 µM
TGI (OVCAR-4 ovarian): > 100 µM
TGI (NCI-H460 lung): > 100 µM
TGI (COLO 205 colon): > 100 µM
TGI (SK-MEL-2 melanoma): > 100 µM
TGI (KM12 colon): 42.5 µM
TGI (M14 melanoma): 81.8 µM

CC(C)=CCOC(=O)C(C)=[N+]=[N-]
TGI (MDA-MB-435): > 100 µM
TGI (HT29 colon): > 100 µM
TGI (OVCAR-4 ovarian): > 100 µM
TGI (NCI/ADR-RES ovarian): > 100 µM
TGI (NCI-H460 lung): > 100 µM
TGI (COLO 205 colon): > 100 µM
TGI (DU-145 prostate): > 100 µM
TGI (KM12 colon): > 100 µM

Nc1ccc2nc(-c3ccccn3)c(-c3ccccn3)nc2c1
TGI (MDA-MB-435): > 100 µM
TGI (OVCAR-4 ovarian): > 100 µM
TGI (NCI/ADR-RES ovarian): > 100 µM
TGI (NCI-H460 lung): > 100 µM
TGI (COLO 205 colon): > 100 µM
TGI (SK-MEL-2 melanoma): > 100 µM
TGI (DU-145 prostate): > 100 µM
TGI (KM12 colon): > 100 µM
TGI (M14 melanoma): > 100 µM

COCCOCOc1ccc(OCc2ccccc2)cc1
TGI (HT29 colon): > 100 µM
TGI (OVCAR-4 ovarian): > 51 µM
TGI (NCI/ADR-RES ovarian): > 100 µM
TGI (NCI-H460 lung): > 100 µM
TGI (COLO 205 colon): > 100 µM
TGI (SK-MEL-2 melanoma): > 100 µM
TGI (KM12 colon): > 100 µM

O=c1[nH]n2c(=O)cc[nH]c2c1-c1nnns1
TGI (HT29 colon): > 100 µM
TGI (OVCAR-4 ovarian): > 100 µM
TGI (NCI-H460 lung): > 100 µM
TGI (COLO 205 colon): > 100 µM
TGI (SK-MEL-2 melanoma): > 100 µM
TGI (KM12 colon): > 100 µM
TGI (M14 melanoma): > 100 µM

Cc1cc(N(CCC#N)CCC#N)ccc1/C=N/NC(=O)c1cc(Cl)ccc1O
TGI (MDA-MB-435): > 100 µM
TGI (HT29 colon): > 100 µM
TGI (OVCAR-4 ovarian): > 100 µM
TGI (NCI/ADR-RES ovarian): > 100 µM
TGI (NCI-H460 lung): > 100 µM
TGI (COLO 205 colon): > 100 µM
TGI (SK-MEL-2 melanoma): > 100 µM
TGI (DU-145 prostate): > 100 µM
TGI (M14 melanoma): > 100 µM

CC1(Cl)C(=O)NC(=O)N(C2CC(N=[N+]=[N-])C(CO)O2)C1N=[N+]=[N-] (stereo unspecified)
TGI (HT29 colon): > 100 µM
TGI (OVCAR-4 ovarian): > 100 µM
TGI (NCI-H460 lung): > 100 µM
TGI (COLO 205 colon): > 100 µM
TGI (SK-MEL-2 melanoma): > 100 µM
TGI (KM12 colon): > 100 µM
TGI (M14 melanoma): > 100 µM

N=C1CSC2=NC3=C(CCC/C3=C\c3ccccc3)C(c3ccccc3)N12 (stereo unspecified)
TGI (HT29 colon): 11.5 µM
TGI (NCI-H460 lung): 14.7 µM
TGI (COLO 205 colon): 21.3 µM
TGI (SK-MEL-2 melanoma): 5.56 µM
TGI (KM12 colon): 13 µM
TGI (M14 melanoma): 13 µM

O=C1/C(=C/c2ccccc2)N=C(c2ccccc2)N1n1c(-c2ccccc2)nc2ccccc2c1=O
TGI (MDA-MB-435): > 100 µM
TGI (HT29 colon): > 100 µM
TGI (OVCAR-4 ovarian): > 100 µM
TGI (NCI/ADR-RES ovarian): > 100 µM
TGI (NCI-H460 lung): > 100 µM
TGI (COLO 205 colon): > 100 µM
TGI (DU-145 prostate): > 100 µM
TGI (KM12 colon): > 100 µM
TGI (M14 melanoma): > 100 µM

Nc1nc2cc3nc(N)c(N)nc3cc2nc1N
TGI (MDA-MB-435): > 100 µM
TGI (HT29 colon): > 100 µM
TGI (NCI/ADR-RES ovarian): > 100 µM
TGI (NCI-H460 lung): > 100 µM
TGI (COLO 205 colon): > 100 µM
TGI (SK-MEL-2 melanoma): > 100 µM
TGI (DU-145 prostate): > 100 µM
TGI (KM12 colon): > 100 µM
TGI (M14 melanoma): > 100 µM
